From patent US9920339B2, “Methods, reagents and cells for biosynthesizing compounds” (INVISTA North America S.á r.l., priority 2014, dated 2018)

How the values were obtained:
[1] = tested on: 4-aminobubyrate:2-oxoglutarate transaminase from Streptomyces griseus; conditions: Yonaha et al., 1985; cited from earlier work
[2] = tested on: 5-aminovalerate transaminase from Clostridium viride; conditions: Barker et al., 1987; cited from earlier work
[3] = tested on: ω-transaminase from Chromobacterium violaceum (SEQ ID NO: 8); conditions: Kaulmann et al., 2007; cited from earlier work
[4] = tested on: Chromobacterium violaceum ω-transaminase (SEQ ID NO: 8); assay: ω-transaminase enzyme activity assay, amine substrate plus pyruvate to L-alanine (cell free extract); format: biochemical; conditions: reverse direction, 10 mM substrate, 10 mM pyruvate, 100 μM pyridoxyl 5′ phosphate, pH 7.5, 25° C., 4 h, L-alanine by RP-HPLC
Protocol: (§1) A nucleotide sequence encoding an N-terminal His-tag was added to the genes from Chromobacterium violaceum and Rhodobacter sphaeroides encoding the ω-transaminases of SEQ ID NOs: 8 and 10 respectively (see FIG. 10) such that N-terminal HIS tagged ω-transaminases could be produced. Each of the resulting modified genes was cloned into a pET21a expression vector under control of the T7 promoter and each expression vector was transformed into a BL21[DE3] E. coli host. The resulting recombinant E. coli strains were cultivated at 37° C. in a 250 mL shake flask culture containing 50 mL LB media and antibiotic selection pressure, with shaking at 230 rpm. Each culture was induced overnight at 16° C. using 1 mM IPTG.
(§2) The pellet from each induced shake flask culture was harvested via centrifugation. Each pellet was resuspended and lysed via sonication. The cell debris was separated from the supernatant via centrifugation and the cell free extract was used immediately in enzyme activity assays.
Enzyme activity assays in the reverse direction (i.e., 5-aminopentanoate to glutarate semialdehyde) were performed in a buffer composed of a final concentration of 50 mM HEPES buffer (pH=7.5), 10 mM 5-aminopentanoate, 10 mM pyruvate and 100 μM pyridoxyl 5′ phosphate. Each enzyme activity assay reaction was initiated by adding cell free extract of the ω-transaminase gene product or the empty vector control to the assay buffer containing the 5-aminopentanoate and incubated at 25° C. for 4 h, with shaking at 250 rpm. The formation of L-alanine from pyruvate was quantified via RP-HPLC.
(§3) A nucleotide sequence encoding an N-terminal His-tag was added to the Chromobacterium violaceum, Pseudomonas aeruginosa, Pseudomonas syringae, Rhodobacter sphaeroide, Escherichia coli and Vibrio fluvialis genes encoding the ω-transaminases of SEQ ID NOs: 8-13, respectively (see FIG. 10) such that N-terminal HIS tagged ω-transaminases could be produced. The modified genes were cloned into a pET21a expression vector under the T7 promoter. Each expression vector was transformed into a BL21[DE3] E. coli host. Each resulting recombinant E. coli strain were cultivated at 37° C. in a 250 mL shake flask culture containing 50 mL LB media and antibiotic selection pressure, with shaking at 230 rpm. Each culture was induced overnight at 16° C. using 1 mM IPTG.
(§4) Enzyme activity assays in the reverse direction (i.e., 5-aminopentanol to 5-oxopentanol) were performed in a buffer composed of a final concentration of 50 mM HEPES buffer (pH=7.5), 10 mM 5-aminopentanol, 10 mM pyruvate, and 100 μM pyridoxyl 5′ phosphate. Each enzyme activity assay reaction was initiated by adding cell free extract of the ω-transaminase gene product or the empty vector control to the assay buffer containing the 5-aminopentanol and then incubated at 25° C. for 4 h, with shaking at 250 rpm. The formation of L-alanine was quantified via RP-HPLC.
as §3, with “and” for “Rhodobacter sphaeroide,”, “coli” for “coli and Vibrio fluvialis”, “8-10 and 12,” for “8-13,”
Enzyme activity assays in the reverse direction (i.e., cadaverine to 5-aminopentanal) were performed in a buffer composed of a final concentration of 50 mM HEPES buffer (pH=7.5), 10 mM cadaverine, 10 mM pyruvate, and 100 μM pyridoxyl 5′ phosphate. […]

[5] = tested on: Pseudomonas aeruginosa ω-transaminase (SEQ ID NO: 9); assay: as above; format: biochemical; conditions: reverse direction, 10 mM substrate, 10 mM pyruvate, 100 μM pyridoxyl 5′ phosphate, pH 7.5, 25° C., 4 h, L-alanine by RP-HPLC
Protocol: as §3, §2, §4
as §3, with “and” for “Rhodobacter sphaeroide,”, “coli” for “coli and Vibrio fluvialis”, “8-10 and 12,” for “8-13,”
as §4, with “cadaverine” for “5-aminopentanol”, “5-aminopentanal)” for “5-oxopentanol)”, “cadaverine,” for “5-aminopentanol,”
(§5) The activity of the N-terminal His-tagged ω-transaminases of SEQ ID NOs: 8-13 (see Example 3, and FIG. 10) for converting 1-aminopentane to pentanal was assayed using a buffer composed of a final concentration of 50 mM HEPES buffer (pH=7.5), 10 mM 1-aminopentane, 10 mM pyruvate and 100 μM pyridoxyl 5′ phosphate. Each enzyme activity assay reaction was initiated by adding a cell free extract of the ω-transaminase or the empty vector control to the assay buffer containing the 1-aminopentane then incubated at 25° C. for 4 h, with shaking at 250 rpm. The formation of L-alanine was quantified via RP-HPLC.
(§6) The activity of the N-terminal His-tagged ω-transaminases of SEQ ID NOs: 8-13 (see Example 3, and FIG. 10) for converting 1-aminoheptane to heptanal was assayed using a buffer composed of a final concentration of 50 mM HEPES buffer (pH=7.5), 10 mM 1-aminoheptane, 10 mM pyruvate and 100 μM pyridoxyl 5′ phosphate. […]

[6] = biological target: gene product of ygjG (Escherichia coli, UniProt P42588); conditions: Samsonova et al., 2003; cited from earlier work
[7] = tested on: diamine transaminase from E. coli strain B; conditions: Kim, 1964; cited from earlier work
[8] = tested on: Pseudomonas syringae ω-transaminase (SEQ ID NO: 10); assay: ω-transaminase enzyme activity assay, amine substrate plus pyruvate to L-alanine (cell free extract); format: biochemical; conditions: reverse direction, 10 mM substrate, 10 mM pyruvate, 100 μM pyridoxyl 5′ phosphate, pH 7.5, 25° C., 4 h, L-alanine by RP-HPLC
Protocol: as §3, §2, §4
as §3, with “and” for “Rhodobacter sphaeroide,”, “coli” for “coli and Vibrio fluvialis”, “8-10 and 12,” for “8-13,”
as §4, with “cadaverine” for “5-aminopentanol”, “5-aminopentanal)” for “5-oxopentanol)”, “cadaverine,” for “5-aminopentanol,”
as §5, with “8, 10-13” for “8-13”, “N5-acetyl-1,5-diaminopentane” for “1-aminopentane”, “N5-acetyl-5-aminopentanal” for “pentanal”, “N5-acetyl-1,5-diaminopentane,” for “1-aminopentane,”
as §6, with “1-aminopentane” for “1-aminoheptane”, “pentanal” for “heptanal”, “1-aminopentane,” for “1-aminoheptane,”

[9] = biological target: T1, Escherichia coli ω-transaminase (SEQ ID NO: 12) (Escherichia coli, UniProt P42588); assay: as above; format: biochemical; conditions: reverse direction, 10 mM substrate, 10 mM pyruvate, 100 μM pyridoxyl 5′ phosphate, pH 7.5, 25° C., 4 h, L-alanine by RP-HPLC
T1 construct: His-tag (N); made in house; host or cells: E. coli BL21[DE3], pET21a
Protocol: as §3, §2, §4
as §3, with “and” for “Rhodobacter sphaeroide,”, “coli” for “coli and Vibrio fluvialis”, “8-10 and 12,” for “8-13,”
as §4, with “cadaverine” for “5-aminopentanol”, “5-aminopentanal)” for “5-oxopentanol)”, “cadaverine,” for “5-aminopentanol,”
as §5, with “8, 10-13” for “8-13”, “N5-acetyl-1,5-diaminopentane” for “1-aminopentane”, “N5-acetyl-5-aminopentanal” for “pentanal”, “N5-acetyl-1,5-diaminopentane,” for “1-aminopentane,”
as §6, with “1-aminopentane” for “1-aminoheptane”, “pentanal” for “heptanal”, “1-aminopentane,” for “1-aminoheptane,”

[10] = biological target: T2, Mycobacterium marinum carboxylate reductase (SEQ ID NO: 2), enhanced by the gene product of sfp (Mycobacterium marinum, UniProt B2HN69); assay: carboxylate reductase enzyme activity assay, NADPH consumption at 340 nm; format: biochemical; conditions: SEQ ID NO 2 with sfp; 2 mM substrate, 10 mM MgCl2, 1 mM ATP, 1 mM NADPH, pH 7.5, room temperature, 20 min; absorbance at 340 nm
T2 construct: His-tag (N); made in house; host or cells: E. coli BL21[DE3], pET Duet
Protocol: (§7) A nucleotide sequence encoding a His-tag was added to the genes from Mycobacterium marinum, Mycobacterium smegmatis, Segniliparus rugosus, Mycobacterium massiliense, and Segniliparus rotundus that encode the carboxylate reductases of SEQ ID NOs: 2-4, 6 and 7, respectively (GenBank Accession Nos. ACC40567.1, ABK71854.1, EFV11917.1, EIV11143.1, and ADG98140.1, respectively) (see FIG. 10) such that N-terminal HIS tagged carboxylate reductases could be produced. Each of the modified genes was cloned into a pET Duet expression vector alongside a sfp gene encoding a His-tagged phosphopantetheine transferase from Bacillus subtilis, both under control of the T7 promoter. Each expression vector was transformed into a BL21[DE3] E. coli host along with the expression vectors from Example 3. Each resulting recombinant E. coli strain was cultivated at 37° C. in a 250 mL shake flask culture containing 50 mL LB media and antibiotic selection pressure, with shaking at 230 rpm. Each culture was induced overnight at 37° C. using an auto-induction media.
(§8) The pellet from each induced shake flask culture was harvested via centrifugation. Each pellet was resuspended and lysed via sonication. The cell debris was separated from the supernatant via centrifugation. The carboxylate reductases and phosphopantetheine transferase were purified from the supernatant using Ni-affinity chromatography, diluted 10-fold into 50 mM HEPES buffer (pH=7.5) and concentrated via ultrafiltration.
(§9) Enzyme activity (i.e., 5-hydroxypentanoate to 5-hydroxypentanal) assays were performed in triplicate in a buffer composed of a final concentration of 50 mM HEPES buffer (pH=7.5), 2 mM 5-hydroxypentanal, 10 mM MgCl2, 1 mM ATP, and 1 mM NADPH. Each enzyme activity assay reaction was initiated by adding purified carboxylate reductase and phosphopantetheine transferase or the empty vector control to the assay buffer containing the 5-hydroxypentanoate and then incubated at room temperature for 20 min. The consumption of NADPH was monitored by absorbance at 340 nm.
(§10) The N-terminal His-tagged carboxylate reductase of SEQ ID NO 2-4 and 7 (see Example 2 and FIG. 10) was assayed using glutarate methyl ester as substrate. The enzyme activity assay was performed in triplicate in a buffer composed of a final concentration of 50 mM HEPES buffer (pH=7.5), 2 mM glutarate methyl ester, 10 mM MgCl2, 1 mM ATP and 1 mM NADPH. The enzyme activity assay reaction was initiated by adding purified carboxylate reductase and phosphopantetheine transferase or the empty vector control to the assay buffer containing the glutarate semialdehyde and then incubated at room temperature for 20 min. The consumption of NADPH was monitored by absorbance at 340 nm.

[11] = tested on: Mycobacterium smegmatis carboxylate reductase (SEQ ID NO: 3), enhanced by the gene product of sfp; assay: as above; format: biochemical; conditions: SEQ ID NO 3 with sfp; 2 mM substrate, 10 mM MgCl2, 1 mM ATP, 1 mM NADPH, pH 7.5, room temperature, 20 min; absorbance at 340 nm
Protocol: as §7, §8, §9, §10

[12] = tested on: Segniliparus rugosus carboxylate reductase (SEQ ID NO: 4), enhanced by the gene product of sfp; assay: as above; format: biochemical; conditions: SEQ ID NO 4 with sfp; 2 mM substrate, 10 mM MgCl2, 1 mM ATP, 1 mM NADPH, pH 7.5, room temperature, 20 min; absorbance at 340 nm
Protocol: as §7, §8, §9, §10

[13] = tested on: Segniliparus rotundus carboxylate reductase (SEQ ID NO: 7), enhanced by the gene product of sfp; assay: as above; format: biochemical; conditions: SEQ ID NO 7 with sfp; 2 mM substrate, 10 mM MgCl2, 1 mM ATP, 1 mM NADPH, pH 7.5, room temperature, 20 min; absorbance at 340 nm
Protocol: as §7
The pellet from each induced shake flask culture was harvested via centrifugation. Each pellet was resuspended and lysed via sonication. The cell debris was separated from the supernatant via centrifugation. […]
Enzyme activity (i.e., 5-hydroxypentanoate to 5-hydroxypentanal) assays were performed in triplicate in a buffer composed of a final concentration of 50 mM HEPES buffer (pH=7.5), 2 mM 5-hydroxypentanal, 10 mM MgCl2, 1 mM ATP, and 1 mM NADPH. […] The consumption of NADPH was monitored by absorbance at 340 nm.
The N-terminal His-tagged carboxylate reductase of SEQ ID NO 7 (see Example 2 and FIG. 10) was assayed using glutarate semialdehyde as substrate. […] The consumption of NADPH was monitored by absorbance at 340 nm.
The N-terminal His-tagged carboxylate reductase of SEQ ID NO 2-4 and 7 (see Example 2 and FIG. 10) was assayed using glutarate methyl ester as substrate. […] The consumption of NADPH was monitored by absorbance at 340 nm.

[14] = tested on: Chromobacterium violaceum ω-transaminase (SEQ ID NO: 8); assay: ω-transaminase enzyme activity assay, amine substrate plus pyruvate to L-alanine (cell free extract); format: biochemical; conditions: forward (amine-forming) direction, inferred from the reverse assay
[15] = tested on: transaminase of SEQ ID NO 10; assay: ω-transaminase enzyme activity assay in the forward direction, glutarate semialdehyde plus L-alanine to pyruvate; format: biochemical, Pseudomonas syringae; conditions: 10 mM glutarate semialdehyde, 10 mM L-alanine, 100 μM pyridoxyl 5′ phosphate, pH 7.5, 25° C., 4 h, pyruvate by RP-HPLC
Protocol: as §1, §2
Enzyme activity in the forward direction (i.e., glutarate semialdehyde to 5-aminopentanoate) was confirmed for the transaminase of SEQ ID NO 10. Enzyme activity assays were performed in a buffer composed of a final concentration of 50 mM HEPES buffer (pH=7.5), 10 mM glutarate semialdehyde, 10 mM L-alanine and 100 μM pyridoxyl 5′ phosphate. […] The formation of pyruvate was quantified via RP-HPLC.

T2 sequence (B2HN69 whole entry): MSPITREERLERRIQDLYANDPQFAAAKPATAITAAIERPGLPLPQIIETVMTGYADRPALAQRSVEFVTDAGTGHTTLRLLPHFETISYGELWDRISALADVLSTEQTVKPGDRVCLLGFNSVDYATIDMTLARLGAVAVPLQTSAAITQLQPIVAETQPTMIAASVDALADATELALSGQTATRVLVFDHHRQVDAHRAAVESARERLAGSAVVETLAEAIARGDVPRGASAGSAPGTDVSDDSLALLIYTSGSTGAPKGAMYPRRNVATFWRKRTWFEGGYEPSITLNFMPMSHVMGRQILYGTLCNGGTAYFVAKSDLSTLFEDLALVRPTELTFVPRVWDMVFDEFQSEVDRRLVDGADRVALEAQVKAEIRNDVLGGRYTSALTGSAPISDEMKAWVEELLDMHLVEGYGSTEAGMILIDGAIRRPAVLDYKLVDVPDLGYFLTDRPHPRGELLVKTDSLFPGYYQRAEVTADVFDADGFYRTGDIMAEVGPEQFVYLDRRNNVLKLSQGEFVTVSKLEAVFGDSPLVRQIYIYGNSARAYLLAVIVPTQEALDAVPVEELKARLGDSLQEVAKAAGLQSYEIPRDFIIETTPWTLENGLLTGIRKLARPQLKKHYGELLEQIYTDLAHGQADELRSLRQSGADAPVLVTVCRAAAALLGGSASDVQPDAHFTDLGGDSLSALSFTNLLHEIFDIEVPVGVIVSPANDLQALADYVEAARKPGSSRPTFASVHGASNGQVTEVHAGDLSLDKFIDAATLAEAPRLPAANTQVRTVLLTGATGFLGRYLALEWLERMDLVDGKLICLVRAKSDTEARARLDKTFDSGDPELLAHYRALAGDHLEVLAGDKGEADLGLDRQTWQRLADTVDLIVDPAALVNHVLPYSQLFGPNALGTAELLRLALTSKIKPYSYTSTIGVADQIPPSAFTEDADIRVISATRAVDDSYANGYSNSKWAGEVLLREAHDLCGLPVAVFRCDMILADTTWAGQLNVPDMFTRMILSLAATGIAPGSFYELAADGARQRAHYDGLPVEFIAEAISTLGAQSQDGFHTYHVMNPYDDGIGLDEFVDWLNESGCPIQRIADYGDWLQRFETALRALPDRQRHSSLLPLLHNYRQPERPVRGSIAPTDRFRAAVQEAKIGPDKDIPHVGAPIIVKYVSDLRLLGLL
gene product of ygjG, sequence (P42588 whole entry): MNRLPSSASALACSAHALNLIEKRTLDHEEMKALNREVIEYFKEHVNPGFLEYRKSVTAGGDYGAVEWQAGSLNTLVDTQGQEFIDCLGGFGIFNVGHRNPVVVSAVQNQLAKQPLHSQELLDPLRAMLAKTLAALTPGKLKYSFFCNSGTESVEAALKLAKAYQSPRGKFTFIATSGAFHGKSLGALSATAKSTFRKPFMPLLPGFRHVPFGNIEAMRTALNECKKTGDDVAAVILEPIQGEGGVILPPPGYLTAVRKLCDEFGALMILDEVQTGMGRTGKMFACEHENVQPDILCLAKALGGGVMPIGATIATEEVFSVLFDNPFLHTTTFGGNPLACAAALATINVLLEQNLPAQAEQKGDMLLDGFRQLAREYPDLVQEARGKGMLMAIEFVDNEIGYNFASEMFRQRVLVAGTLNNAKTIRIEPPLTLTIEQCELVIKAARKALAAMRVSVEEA
T1 sequence (P42588 whole entry): as above

NCCCCCC(=O)O [6-aminohexanoate]
activity for the conversion to adipate semialdehyde [1]: demonstrated analogous activity
activity for the conversion to adipate semialdehyde [2]: demonstrated analogous activity
accepted as amino donor [3]: demonstrated analogous activity

NCCCCCN [cadaverine]
accepted as substrate as confirmed against the empty vector control [4]: accepted
accepted as substrate as confirmed against the empty vector control [5]: accepted
accepted as diamine substrate [6]: accepts
activity for the substrate [7]: demonstrated activity
accepted as substrate as confirmed against the empty vector control [8]: accepted
accepted as substrate as confirmed against the empty vector control [9]: accepted

COC(=O)CCCC(=O)O [glutarate methyl ester]
accepted as substrate as confirmed against the empty vector control [10]: accepted
accepted as substrate as confirmed against the empty vector control [11]: accepted
accepted as substrate as confirmed against the empty vector control [12]: accepted
accepted as substrate as confirmed against the empty vector control [13]: accepted

O=CCCCC(=O)O [glutarate semialdehyde]
accepted as substrate, concluded from the reversibility of the ω-transaminase activity [14]: accepted
accepted as substrate as confirmed against the empty vector control [13]: accepted
accepted as substrate as confirmed against the empty vector control [15]: accepted
